According to PubChem BioAssay AID1963450 (Molecular Pharmacology Branch, DTP, NCI, 2024):

Test system: 556581-035-R-J1-PDC complex spheroid growth
Assay: Anticancer human tumor 556581-035-R-J1-PDC patient-derived ovarian carcinoma cell line growth inhibition [Asc]
Conditions: for IC50: curve of first compound; for viability, T/C: stronger effect = lower value
How it was run: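 Tumor cells were grown as complex spheroids with human endothelial cells (HUVEC) and human mesenchymal stem cells as stroma. Agents were tested alone and in combination, in half-log steps down from the clinical Cmax, or from 10 microM where Cmax was unknown.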

[1] = second compound 0.03 µM, first compound 0.0316 µM
[2] = second compound 0.03 µM, first compound 0.1 µM
[3] = second compound 0.03 µM, first compound 0.316 µM
[4] = second compound 0.03 µM, first compound 1 µM
[5] = second compound 0.03 µM, first compound 3.16 µM
[6] = second compound 0.03 µM, first compound 10 µM
[7] = second compound 0.0949 µM, first compound 0.0316 µM
[8] = second compound 0.0949 µM, first compound 0.1 µM
[9] = second compound 0.0949 µM, first compound 0.316 µM
[10] = second compound 0.0949 µM, first compound 1 µM
[11] = second compound 0.0949 µM, first compound 3.16 µM
[12] = second compound 0.0949 µM, first compound 10 µM
[13] = second compound 0.3 µM, first compound 0.0316 µM
[14] = second compound 0.3 µM, first compound 0.1 µM
[15] = second compound 0.3 µM, first compound 0.316 µM
[16] = second compound 0.3 µM, first compound 1 µM
[17] = second compound 0.3 µM, first compound 3.16 µM
[18] = second compound 0.3 µM, first compound 10 µM
[19] = second compound 0.949 µM, first compound 0.0316 µM
[20] = second compound 0.949 µM, first compound 0.1 µM
[21] = second compound 0.949 µM, first compound 0.316 µM
[22] = second compound 0.949 µM, first compound 1 µM
[23] = second compound 0.949 µM, first compound 3.16 µM
[24] = second compound 0.949 µM, first compound 10 µM
[25] = second compound 3 µM, first compound 0.0316 µM
[26] = second compound 3 µM, first compound 0.1 µM
[27] = second compound 3 µM, first compound 0.316 µM
[28] = second compound 3 µM, first compound 1 µM
[29] = second compound 3 µM, first compound 3.16 µM
[30] = second compound 3 µM, first compound 10 µM
[31] = second compound 0.03 µM, first compound 0.00316 µM
[32] = second compound 0.03 µM, first compound 0.01 µM
[33] = second compound 0.0949 µM, first compound 0.00316 µM
[34] = second compound 0.0949 µM, first compound 0.01 µM
[35] = second compound 0.3 µM, first compound 0.00316 µM
[36] = second compound 0.3 µM, first compound 0.01 µM
[37] = second compound 0.949 µM, first compound 0.00316 µM
[38] = second compound 0.949 µM, first compound 0.01 µM
[39] = second compound 3 µM, first compound 0.00316 µM
[40] = second compound 3 µM, first compound 0.01 µM
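Further: spheroids exposed to agents for 7 days before viability read.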

Row | IC50 (second compound 0.03 µM) | IC50 (second compound 0.0949 µM) | IC50 (second compound 0.3 µM) | IC50 (second compound 0.949 µM) | IC50 (second compound 3 µM) | SMILES | viability, T/C [1] | viability, T/C [2] | viability, T/C [3] | viability, T/C [4] | viability, T/C [7] | viability, T/C [8] | viability, T/C [9] | viability, T/C [10] | viability, T/C [13] | viability, T/C [14] | viability, T/C [15] | viability, T/C [16] | viability, T/C [19] | viability, T/C [20] | viability, T/C [21] | other results
1 | > 10 µM | > 10 µM | > 10 µM | > 10 µM | > 10 µM | C#Cc1c(F)ccc2cc(O)cc(-c3ncc4c(N5CC6CCC(C5)N6)nc(OCC56CCCN5CC(F)C6)nc4c3F)c12 (stereo not given) + CCN1C(C(=O)NC23CCC(C(=O)O)(CC2)CC3)C(c2cccc(Cl)c2F)C2(C(=O)Nc3cc(Cl)ccc32)C12CCCCC2 | 98.9% | 86% | 102% | 89.6% | 105% | 83.2% | 93.9% | 79.5% | 80.2% | 66.7% | 75% | 86.1% | 86.6% | 80.3% | 85.7% | viability, T/C [5]: 96.7%; viability, T/C [6]: 89.6%; viability, T/C [11]: 91%; viability, T/C [12]: 61.9%; viability, T/C [17]: 83.3%; viability, T/C [18]: 61.8%; viability, T/C [22]: 74.9%; viability, T/C [23]: 76.3%; viability, T/C [24]: 78.5%; viability, T/C [25]: 95.8%; viability, T/C [26]: 102%; viability, T/C [27]: 76%; viability, T/C [28]: 78%; viability, T/C [29]: 70.1%; viability, T/C [30]: 78.6%
2 | 3.8 µM | 3.86 µM | 3.88 µM | 4.39 µM | 2.67 µM | C=C(F)C(=O)N1CCN(c2nc(OCC3CCCN3C)nc3c2CCN(c2cccc4cccc(Cl)c24)C3)CC1CC#N (stereo not given) + CCN1C(C(=O)NC23CCC(C(=O)O)(CC2)CC3)C(c2cccc(Cl)c2F)C2(C(=O)Nc3cc(Cl)ccc32)C12CCCCC2 | 92.1% | 97.3% | 112% | 94.5% | 114% | 102% | 90.8% | 87.8% | 103% | 92.5% | 103% | 81.6% | 91.7% | 99.2% | 98.3% | viability, T/C [5]: 59%; viability, T/C [6]: 3.04%; viability, T/C [11]: 62.5%; viability, T/C [12]: 3.7%; viability, T/C [17]: 61.4%; viability, T/C [18]: 3.01%; viability, T/C [22]: 84.9%; viability, T/C [23]: 65.6%; viability, T/C [24]: 12.3%; viability, T/C [25]: 89.8%; viability, T/C [26]: 105%; viability, T/C [27]: 92.5%; viability, T/C [28]: 79.2%; viability, T/C [29]: 45.2%; viability, T/C [30]: 2.9%
3 | > 10 µM | > 10 µM | > 10 µM | > 10 µM | > 10 µM | C=CC(=O)N1CCN(c2nc(=O)n(-c3c(C)ccnc3C(C)C)c3nc(-c4c(O)cccc4F)c(F)cc23)C(C)C1 (stereo not given) + CCN1C(C(=O)NC23CCC(C(=O)O)(CC2)CC3)C(c2cccc(Cl)c2F)C2(C(=O)Nc3cc(Cl)ccc32)C12CCCCC2 | 96.1% | 98.7% | 95.1% | 102% | 102% | 99.1% | 104% | 88% | 102% | 103% | 101% | 86.6% | 113% | 95.6% | 119% | viability, T/C [5]: 94.3%; viability, T/C [6]: 94.4%; viability, T/C [11]: 117%; viability, T/C [12]: 99.4%; viability, T/C [17]: 116%; viability, T/C [18]: 103%; viability, T/C [22]: 115%; viability, T/C [23]: 109%; viability, T/C [24]: 103%; viability, T/C [25]: 93.2%; viability, T/C [26]: 87.5%; viability, T/C [27]: 96%; viability, T/C [28]: 96.5%; viability, T/C [29]: 103%; viability, T/C [30]: 84.8%
4 | > 1 µM | > 1 µM | > 1 µM | > 1 µM | > 1 µM | CNC(C)C(=O)NC1CN(S(=O)(=O)c2cccc(S(=O)(=O)N3CCC4CCC(C(=O)NC(c5ccccc5)c5ccccc5)N4C(=O)C(NC(=O)C(C)NC)C3)c2)CCC2CCC(C(=O)NC(c3ccccc3)c3ccccc3)N2C1=O (stereo not given) + CCN1C(C(=O)NC23CCC(C(=O)O)(CC2)CC3)C(c2cccc(Cl)c2F)C2(C(=O)Nc3cc(Cl)ccc32)C12CCCCC2 | 97.9% | 76.4% | 61.8% | 54.3% | 87% | 76.8% | 65.6% | 60.5% | 106% | 77.3% | 73% | 57.1% | 93.9% | 66.8% | 65.1% | viability, T/C [31]: 94.8%; viability, T/C [32]: 82.8%; viability, T/C [33]: 88.3%; viability, T/C [34]: 98.8%; viability, T/C [35]: 108%; viability, T/C [36]: 97.5%; viability, T/C [37]: 85.5%; viability, T/C [38]: 81.2%; viability, T/C [22]: 65.5%; viability, T/C [39]: 105%; viability, T/C [40]: 94.6%; viability, T/C [25]: 78.7%; viability, T/C [26]: 70.8%; viability, T/C [27]: 63.3%; viability, T/C [28]: 60.5%
5 | 0.0589 µM | 0.0427 µM | 0.0394 µM | 0.0511 µM | 0.0333 µM | COc1c(OCCCN2CCOCC2)ccc2c3n(c(=NC(=O)c4cnc(N)nc4)nc12)CCN3 + CCN1C(C(=O)NC23CCC(C(=O)O)(CC2)CC3)C(c2cccc(Cl)c2F)C2(C(=O)Nc3cc(Cl)ccc32)C12CCCCC2 | 59.2% | 43.3% | 20% | 13.4% | 51.7% | 39.3% | 25.7% | 13.5% | 50.2% | 39% | 22.5% | 15.4% | 58.2% | 40.2% | 21.6% | viability, T/C [31]: 71.9%; viability, T/C [32]: 65.5%; viability, T/C [33]: 78.3%; viability, T/C [34]: 70.1%; viability, T/C [35]: 76.7%; viability, T/C [36]: 70%; viability, T/C [37]: 78.3%; viability, T/C [38]: 75.2%; viability, T/C [22]: 45.8%; viability, T/C [39]: 62.2%; viability, T/C [40]: 57.9%; viability, T/C [25]: 46.7%; viability, T/C [26]: 45.5%; viability, T/C [27]: 27.5%; viability, T/C [28]: 14.6%
